Our source for the Activity values is ChEMBL document CHEMBL1137632, “Galanin message-associated peptide suppresses growth and the budded-to-hyphal-form transition of Candida albicans” (2007).

Test [1] concerns Candida albicans. In words: Antifungal activity against Candida albicans clinical isolates at 32 uM after 16 hrs by BacTiter-Glow assay. Type of test: functional, organism-based.
Test [2] relates to Candida albicans. The test can be described thus: Antifungal activity against Candida albicans K2 at 32 uM after 16 hrs by BacTiter-Glow assay. Type of test: functional, organism-based.
The test system of test [3] is Candida albicans. The test can be described thus: Antifungal activity against Candida albicans SC5314 at 32 uM after 16 hrs by BacTiter-Glow assay. The test is classed as functional, organism-based.
Test [4] has as its system Candida albicans. In words: Antifungal activity against Candida albicans CBS 5983 at 32 uM after 16 hrs by BacTiter-Glow assay. Type of test: functional, organism-based.
The test system of test [5] is Candida albicans. In words: Antifungal activity against Candida albicans K2 at 4.3 uM after 16 hrs by BacTiter-Glow assay relative to untreated control. The test is classed as functional. As to conditions: pooled result: one value given for 4 cell lines, strains, targets or settings.
The test system of test [6] is Candida albicans. The test can be described thus: Antifungal activity against Candida albicans SC5314 assessed as inhibition of fungal transformation from budded-to-hyphal-form at 2 uM after 24 hrs by microscopy. The test is classed as functional, organism-based.
Test [7] concerns Candida albicans. The test can be described thus: Antifungal activity against Candida albicans SC5314 assessed as inhibition of fungal transformation from budded-to-hyphal-form at 4 uM after 24 hrs by microscopy. Type of test: functional, organism-based.
Test [8] has as its system Candida albicans. In words: Antifungal activity against Candida albicans SC5314 assessed as inhibition of fungal transformation from budded-to-hyphal-form at 1 uM after 24 hrs by microscopy. The test is classed as functional, organism-based.
Test [9] deals with Candida albicans. In words: Antifungal activity against Candida albicans SC5314 at 4.1 uM after 16 hrs by BacTiter-Glow assay. Type of test: functional, organism-based.
Test [10] relates to Candida albicans. The test can be described thus: Antifungal activity against Candida albicans SC5314 at 4 uM after 16 hrs by BacTiter-Glow assay. The test is classed as functional, organism-based.
Test [11] deals with Candida albicans. In words: Antifungal activity against Candida albicans CBS 5983 at 4 uM after 16 hrs by BacTiter-Glow assay. The test is classed as functional, organism-based.
Test [12] deals with Candida albicans. The test can be described thus: Antifungal activity against Candida albicans K2 at 4.1 uM after 16 hrs by BacTiter-Glow assay. The test is classed as functional, organism-based.
The test system of test [13] is Candida albicans. The test can be described thus: Antifungal activity against Candida albicans CBS 5983 at 4.1 uM after 16 hrs by BacTiter-Glow assay. Type of test: functional, organism-based.
The subject of test [14] is Candida albicans. The test can be described thus: Antifungal activity against Candida albicans clinical isolates at 4 uM after 16 hrs by BacTiter-Glow assay. The test is classed as functional, organism-based.
The subject of test [15] is Candida albicans. In words: Antifungal activity against Candida albicans clinical isolates at 4.1 uM after 16 hrs by BacTiter-Glow assay. Type of test: functional, organism-based.
For test [16], the system named is Candida albicans. In words: Antifungal activity against Candida albicans K2 at 4 uM after 16 hrs by BacTiter-Glow assay. Type of test: functional, organism-based.
Test [17] relates to Candida albicans. The test can be described thus: Antifungal activity against Candida albicans K2 at 6.3 uM after 16 hrs by BacTiter-Glow assay. The test is classed as functional, organism-based.
For test [18], the system named is Candida albicans. In words: Antifungal activity against Candida albicans SC5314 at 6.3 uM after 16 hrs by BacTiter-Glow assay. Type of test: functional, organism-based.
The subject of test [19] is Candida albicans. The test can be described thus: Antifungal activity against Candida albicans clinical isolates at 6.3 uM after 16 hrs by BacTiter-Glow assay. The test is classed as functional, organism-based.
Test [20] concerns Candida albicans. The test can be described thus: Antifungal activity against Candida albicans CBS 5983 at 6.3 uM after 16 hrs by BacTiter-Glow assay. The test is classed as functional, organism-based.
The test system of test [21] is Candida albicans. In words: Antifungal activity against Candida albicans K2 at 4.15 uM after 16 hrs by BacTiter-Glow assay relative to untreated control. The test is classed as functional.
The test system of test [22] is Candida albicans. In words: Antifungal activity against Candida albicans clinical isolates at 4.15 uM after 16 hrs by BacTiter-Glow assay relative to untreated control. Type of test: functional.
For test [23], the system named is Candida albicans. The test can be described thus: Antifungal activity against Candida albicans SC5314 at 4.15 uM after 16 hrs by BacTiter-Glow assay relative to untreated control. The test is classed as functional.
The subject of test [24] is Candida albicans. The test can be described thus: Antifungal activity against Candida albicans CBS 5983 at 4.15 uM after 16 hrs by BacTiter-Glow assay relative to untreated control. Type of test: functional.
Test [25] relates to Candida albicans. In words: Antifungal activity against Candida albicans K2 at 24.3 uM after 16 hrs by BacTiter-Glow assay. The test is classed as functional, organism-based.
The subject of test [26] is Candida albicans. The test can be described thus: Antifungal activity against Candida albicans CBS 5983 at 24.3 uM after 16 hrs by BacTiter-Glow assay. The test is classed as functional, organism-based.
Test [27] has as its system Candida albicans. In words: Antifungal activity against Candida albicans clinical isolates at 24.3 uM after 16 hrs by BacTiter-Glow assay. The test is classed as functional, organism-based.
The test system of test [28] is Candida albicans. The test can be described thus: Antifungal activity against Candida albicans SC5314 at 24.3 uM after 16 hrs by BacTiter-Glow assay. Type of test: functional, organism-based.

The source made the active and inactive calls. The calls are words filed in the database; no cut-off is given here.

As for `OC(Cn1cncn1)(Cn1cncn1)c1ccc(F)cc1F`, the result in test [1], in test [2], in test [3] and in [4] was Active.
“H-ELRPEDDMKPGSFDRSIPENNIMRTIIEFLSFLHLKEAGAL-OH”: the Activity in [5] is reported as 48.7%.
As for `CC[C@H](C)[C@H](NC(=O)[C@H](C)NC(=O)CNC(=O)[C@H](C)NC(=O)[C@H](CCC(=O)O)NC(=O)[C@H](CCCCN)NC(=O)[C@H](CC(C)C)NC(=O)[C@H](Cc1cnc[nH]1)NC(=O)[C@H](CC(C)C)NC(=O)[C@H](Cc1ccccc1)NC(=O)[C@H](CO)NC(=O)[C@H](CC(C)C)NC(=O)[C@H](Cc1ccccc1)NC(=O)[C@H](CCC(=O)O)NC(=O)[C@@H](NC(=O)[C@@H](NC(=O)[C@@H](NC(=O)[C@H](CCCNC(=N)N)NC(=O)[C@H](CCSC)NC(=O)[C@@H](NC(=O)[C@H](CC(N)=O)NC(=O)[C@H](CC(N)=O)NC(=O)[C@H](CCC(=O)O)NC(=O)[C@@H]1CCCN1C(=O)[C@@H](NC(=O)[C@H](CO)NC(=O)[C@H](CCCNC(=N)N)NC(=O)[C@H](CC(=O)O)NC(=O)[C@H](Cc1ccccc1)NC(=O)[C@H](CO)NC(=O)CNC(=O)[C@@H]1CCCN1C(=O)[C@H](CCCCN)NC(=O)[C@H](CCSC)NC(=O)[C@H](CC(=O)O)NC(=O)[C@H](CC(=O)O)NC(=O)[C@H](CCC(=O)O)NC(=O)[C@@H]1CCCN1C(=O)[C@H](CCCNC(=N)N)NC(=O)[C@H](CC(C)C)NC(=O)[C@@H](N)CCC(=O)O)[C@@H](C)CC)[C@@H](C)CC)[C@H](C)O)[C@@H](C)CC)[C@@H](C)CC)C(=O)O`, the result in test [6] and in [7] was Active. For the same molecule, the outcome in test [8] was inactive.
In the case of H-SIPENNIMRTIIEFLSFLHLKEAGAL-OH, the outcome in test [9], in test [10], in [11], in test [12], in test [6] and in [7] was Active. Besides, the result in test [13], in test [14], in test [15] and in test [16] was Active. The outcome in test [8] was inactive.
As to `CC[C@H](C)[C@H](NC(=O)[C@H](C)NC(=O)[C@H](Cc1c[nH]cn1)NC(=O)[C@@H]1CCCN1C(=O)CNC(=O)[C@H](CC(C)C)NC(=O)[C@H](CC(C)C)NC(=O)[C@H](Cc1ccc(O)cc1)NC(=O)CNC(=O)[C@H](C)NC(=O)[C@H](CO)NC(=O)[C@H](CC(N)=O)NC(=O)[C@H](CC(C)C)NC(=O)[C@@H](NC(=O)[C@H](Cc1c[nH]c2ccccc12)NC(=O)CN)[C@@H](C)O)C(=O)N[C@@H](CC(=O)O)C(=O)N[C@@H](CC(N)=O)C(=O)N[C@@H](Cc1c[nH]cn1)C(=O)N[C@@H](CCCNC(=N)N)C(=O)N[C@@H](CO)C(=O)N[C@@H](Cc1ccccc1)C(=O)N[C@@H](Cc1c[nH]cn1)C(=O)N[C@@H](CC(=O)O)C(=O)N[C@@H](CCCCN)C(=O)N[C@@H](Cc1ccc(O)cc1)C(=O)NCC(=O)N[C@@H](CC(C)C)C(=O)N[C@@H](C)C(N)=O`, the outcome in test [17], in [18], in [19] and in [20] was inactive.
As for “H-GIGKFLHSAGKFGKAFVGEIMKS-OH [MAGAININ I]”, the Activity in test [21], in [22], in test [23] and in [24] was over 90% throughout.
As to H-LQSEDKAIRTIMEFLAFLHLKEAGAL-OH, the outcome in test [9], in [10], in test [11], in test [12], in test [7] and in test [13] was Active. Also, the outcome in [14], in test [15] and in test [16] was Active.
H-PENNIMRTIIEFLSFLHLKEAGAL-OH: the result in test [25], in test [26], in test [27] and in test [28] was inactive.
